# In paper PMC2852430 (Biochemistry, 2010):
# What was measured:
# [1] = target: chicken erythrocyte tubulin (CeTb), ~95% βVI (Gallus gallus, UniProt P09207); test: biochemical; type: biochemical
# [2] = test system: bovine brain tubulin (BbTb); test: Association kinetics of ligand binding to BbTb by fluorescence; settings: 25°C, […] μM allocolchicine; for kf, apparent second order rate constant of the fast phase of biphasic binding to BbTb: 1 μM BbTb, 20 μM colchicinoid
# [3] = test system: bovine brain tubulin (BbTb); test: Inhibition of paclitaxel-induced tubulin assembly; type: biochemical; settings: read-out: IC50, inhibition of Taxol-induced assembly of BbTb; 2 μM tubulin
# [4] = test system: bovine brain tubulin (BbTb); test: Equilibrium fluorescence titration of allocolchicine with BbTb; type: binding; settings: 25°C
# [5] = test system: cells containing human β1; settings: cited from earlier work
# Sequence of chicken erythrocyte tubulin (CeTb), ~95% βVI (P09207 whole entry): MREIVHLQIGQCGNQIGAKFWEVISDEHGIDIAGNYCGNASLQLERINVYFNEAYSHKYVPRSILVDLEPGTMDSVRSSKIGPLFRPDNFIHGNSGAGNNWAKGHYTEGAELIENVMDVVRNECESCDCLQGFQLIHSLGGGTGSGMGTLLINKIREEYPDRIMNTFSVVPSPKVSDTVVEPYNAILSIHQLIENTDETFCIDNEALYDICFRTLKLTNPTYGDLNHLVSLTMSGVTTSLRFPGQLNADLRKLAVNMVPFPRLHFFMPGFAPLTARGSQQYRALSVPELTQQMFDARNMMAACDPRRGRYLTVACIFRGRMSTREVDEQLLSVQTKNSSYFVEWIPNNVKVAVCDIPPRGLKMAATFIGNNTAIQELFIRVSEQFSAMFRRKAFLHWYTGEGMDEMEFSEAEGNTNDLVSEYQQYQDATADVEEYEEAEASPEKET
# Sequence of chicken erythrocyte tubulin (CeTb), ~95% βVI (P02552 whole entry partner): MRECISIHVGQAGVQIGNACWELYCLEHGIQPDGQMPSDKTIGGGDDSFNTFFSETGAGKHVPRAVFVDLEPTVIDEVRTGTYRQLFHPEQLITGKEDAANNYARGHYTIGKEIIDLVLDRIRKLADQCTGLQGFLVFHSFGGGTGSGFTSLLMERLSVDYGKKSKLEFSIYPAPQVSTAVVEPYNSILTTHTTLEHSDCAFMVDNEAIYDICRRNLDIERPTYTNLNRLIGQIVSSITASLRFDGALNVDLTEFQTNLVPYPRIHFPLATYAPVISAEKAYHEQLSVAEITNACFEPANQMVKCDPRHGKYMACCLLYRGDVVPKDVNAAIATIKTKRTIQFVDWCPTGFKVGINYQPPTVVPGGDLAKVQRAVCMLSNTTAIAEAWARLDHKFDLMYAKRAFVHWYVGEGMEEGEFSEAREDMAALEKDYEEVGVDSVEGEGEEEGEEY
smiles,measurement,setting,value
"COc1cc([C@@H]2c3cc4c(cc3[C@H](O)[C@H]3COC(=O)[C@H]23)OCO4)cc(OC)c1OC [Podophyllotoxin, podophyllotoxin]",IC50,[1],25 ± 1 µM
same,IC50 for CeTb assembly relative to IC50 for BbTb,"[1]; 5 μM tubulin, same experimental conditions",about 15 fold
"COc1cc2c(c(OC)c1OC)-c1ccc(Cl)c(=O)cc1C(NC(C)=O)CC2 (stereo not drawn) [Chlorocolchicine, 10-demethoxy-10-chlorocolchicine]","kf, apparent second order rate constant of the fast phase of biphasic binding to BbTb",[2],367 ± 7 M⁻¹ s⁻¹
"COC(=O)c1ccc2c(c1)[C@@H](NC(C)=O)CCc1cc(OC)c(OC)c(OC)c1-2 [Allocolchicine, allocolchicine]",IC50,[3],0.5 µM
same,"kf, apparent second order rate constant of the fast phase of biphasic binding to BbTb",[2],343 ± 7 M⁻¹ s⁻¹
same,Time for binding to BbTb to attain a plateau,[2]; 1 μM tubulin,≤ 600 s
same,"Ligand concentration at which fluorescence enhancement plateaus, BbTb",[4]; 1 μM BbTb,about 20 μM
same,Association constant (Ka) for BbTb,"[4]; 1 μM tubulin, 10% DMSO, single site isotherm",500000 M⁻¹
COc1cc2c(cc1O)CC[C@@H]1[C@@H]2CC[C@]2(C)[C@@H](O)CC[C@@H]12 [2-methoxyestradiol],Sensitivity of cells containing human β1 to ligand,[5],insensitive
